Measured values taken from PMC11858205, “Radiolabeling and Preliminary In Vivo Evaluation of the Candidate CCR2 Targeting PET Radioligand [^11C]AZD2423” (Pharmaceuticals, 2025).
Blank lines part the entries; values can stand above or below the molecule they belong to.

Key:
[1] = design: method as in PMID 26116114; conditions: brain tissue in vitro; cited from earlier work
CCR2 [2] = system: CCR2; design: method as in PMID 23523116, PMID 29913894; conditions: no method in this paper; read-out: CCR2 IC50 (affinity); cited from earlier work
[3] = design: method as in PMID 23523116, PMID 29913894; conditions: no method in this paper; cited from earlier work
CCR2 [4] = system: CCR2; design: method as in PMID 33205603; conditions: cited from earlier work
[5] = Radiometabolite analysis in arterial plasma; assay type: in vivo, rhesus monkeys
Method: To measure parent radioligand and radiometabolites in plasma, discrete arterial blood samples were drawn at five time points after the injection of [^11C]AZD2423. The radioligand was metabolized rather slowly (Figure 5). At 10 min after injection, approximately 80% of the radioactivity in plasma represented parent radioligand, decreasing to approximately 60% at 90 min. Most radiometabolites detected in plasma eluted with a retention time (tR) of 2.1–2.7 min and were thus less lipophilic than [^11C]AZD2423 (tR = 3.0 min). However, one metabolite with a longer retention time (tR = 3.5 min) was formed (see Supporting Information). These metabolites were not identified and further work would be required to fully characterize these unknown radiometabolites. […]
Two PET measurements were performed on the same experimental day in each of the two monkeys. […] Radioactivity in the brain was continuously measured for 123 min using the high-resolution research tomograph (HRRT; Siemens Molecular Imaging, Knoxville, TN, USA), following a preprogrammed sequence of 34 frames. Arterial blood samples were collected at specified time points (4, 15, 30, 45, and 90 min) and analyzed for radioactivity in blood and plasma, as well as for the presence of the remaining parent compound, [^11C]AZD2423.
Method description and representative radioactivity HPLC trace for radiometabolite analysis. […]

CCR1 = system: CCR1; design: method as in PMID 23523116, PMID 29913894; conditions: no method in this paper; cited from earlier work
[6] = Stability of the radioligand in formulation; assay type: physicochemical; conditions: 9% ethanol in PBS, pH 7.4
Method: Carbon-11 labeled radioligands for in vivo PET imaging studies are typically produced in giga-becquerel quantities. As our goal was to develop a synthesis methodology suitable for routine radioligand production, the [^11C]AZD2423 synthesis process was fully automated to improve its reliability and reproducibility. The complete process was performed using a previously described [^11C]CO prototype synthesis apparatus (GEMS, Uppsala, Sweden), which included the initial formation of the crude [^11C]AZD2423 product, followed by its isolation by semipreparative high-performance liquid chromatography (HPLC), solid-phase extraction (SPE), and sterile filtration to yield the formulated product. Using these conditions, [^11C]AZD2423 was prepared with radioactivities exceeding 1 GBq and the radiochemical purity (RCP) was greater than 99%. The synthesis process took approximately 40 min, and the molar activity (Am) at the time of injection ranged from 15 to 20 GBq/μmol (405 to 540 Ci/mmol). […] The average radiochemical yield for the synthesis of [^11C]AZD2423 was 7.4 ± 0.6% (n = 4, relative to the [^11C]CO2 at the start of synthesis). The identity of the labeled compound was verified by co-injecting it with a reference standard.

CCR5 = system: CCR5; design: method as in PMID 23523116, PMID 29913894; conditions: no method in this paper; cited from earlier work
CCR2 [7] = molecular target: T1, CCR2 (Macaca mulatta, UniProt O18793); assay: PET imaging in non-human primates at baseline and after pretreatment with AZD2423; assay type: in vivo, rhesus monkeys; conditions: for SUVpeak brain: iv; for Average VT parotid gland / Average VT thyroid gland: two-tissue compartment analysis
T1 construct: from tissue; host or cells: living rhesus monkeys: brain, thyroid gland, parotid gland, submandibular gland
T1 sequence (O18793 1-360): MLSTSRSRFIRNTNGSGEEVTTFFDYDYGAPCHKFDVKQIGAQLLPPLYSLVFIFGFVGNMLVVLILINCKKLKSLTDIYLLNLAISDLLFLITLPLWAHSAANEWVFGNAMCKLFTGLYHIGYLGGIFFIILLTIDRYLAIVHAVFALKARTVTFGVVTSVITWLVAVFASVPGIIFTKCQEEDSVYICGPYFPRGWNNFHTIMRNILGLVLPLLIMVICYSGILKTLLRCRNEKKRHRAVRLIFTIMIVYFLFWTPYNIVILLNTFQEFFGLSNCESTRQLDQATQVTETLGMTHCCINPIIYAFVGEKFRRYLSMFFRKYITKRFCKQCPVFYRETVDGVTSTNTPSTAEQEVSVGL
Method: To evaluate the brain exposure and regional distribution of [^11C]AZD2423 in non-human primate (NHP) brains, PET imaging studies were carried out. Thus, two 123 min dynamic brain PET measurements were performed at baseline and after pretreatment with unlabeled AZD2423 (3 mg/kg), respectively.
PET experiments were conducted on two anesthetized healthy rhesus monkeys weighing 5.3 and 4.7 kg. The study received approval from the Stockholm Animal Research Ethical Committee (Dnr. N452/11) and is comprehensively described in Dahl et al.. Anesthesia was induced via an intramuscular injection of ketamine hydrochloride (approximately 10 mg/kg, Ketalar, Pfizer AB, Stockholm, Sweden) and maintained with a mixture of sevoflurane (2–8%, Abbott Scandinavia AB, Solna, Sweden), oxygen (around 40%), and medical air following endotracheal intubation. The anesthesia level was continuously monitored during the experiment. The head was stabilized using a fixation device, and the body temperature was regulated with a Bair Hugger model 505 (Arizant Healthcare, St. Paul, MN, USA), with continuous monitoring via an esophageal thermometer. ECG, heart rate, blood pressure, respiratory rate, and oxygen saturation were all continuously monitored throughout the experiments.
Two PET measurements were performed on the same experimental day in each of the two monkeys. Baseline PET measurements were conducted using [^11C]AZD2423 with doses of 164 MBq and 157 MBq. A pretreatment PET measurement was also performed, during which an infusion of unlabeled AZD2423 (3.0 mg/kg) occurred over 10 min, starting 30 min before the injection of [^11C]AZD2423 (90 MBq and 158 MBq). In each PET experiment, the radioligand was administered as an intravenous bolus injection over 5 s, coinciding with the start of PET data acquisition. Radioactivity in the brain was continuously measured for 123 min using the high-resolution research tomograph (HRRT; Siemens Molecular Imaging, Knoxville, TN, USA), following a preprogrammed sequence of 34 frames. Arterial blood samples were collected at specified time points (4, 15, 30, 45, and 90 min) and analyzed for radioactivity in blood and plasma, as well as for the presence of the remaining parent compound, [^11C]AZD2423.
The Regions of Interest (ROIs) were delineated manually on MRI images of each NHP for the whole brain, thyroid gland, parotid gland, and submandibular gland. The summed PET images of the entire duration were co-registered with the MRI image of the individual NHP. After applying the co-registration parameters to the dynamic PET data, time–activity curves were generated for all ROIs for each PET measurement. The average SUV was calculated for each ROI. Target occupancy was estimated using the volume of distribution (VT) calculated by a two-tissue compartment model (2TC) with metabolite-corrected plasma radioactivity.

Other GPCR = system: Other GPCR; design: method as in PMID 23523116, PMID 29913894; conditions: no method in this paper; cited from earlier work
[8] = pretreatment AZD2423 3 mg/kg relative to baseline
[9] = pretreatment AZD2423 3.0 mg/kg relative to baseline
[10] = pretreatment AZD2423 3 mg/kg, n = 2

SMILES: CC(C)(C)N1CCNC(C(=O)N2CCN(C(=O)Nc3ccc(Cl)c(F)c3)CC2)C1 (stereo not drawn) [AZD2423]
Fu (brain) / brain slice distribution [1]: 0.045
IC50 (CCR2 [2]): 2.6 nM
LogD [3]: 1.85

SMILES: CN(CCc1ccc(NC(=O)C2=Cc3cc(-c4ccc(OCCCCC[18F])cc4)ccc3CCC2)cc1)C1CCOCC1 [[^18F]6b]
in vitro affinity to CCR2 (CCR2 [4]): 14 nM

Parent radioligand, share of radioactivity in plasma ([5]; 10 min after iv injection): approximately 80%
Parent radioligand, share of radioactivity in plasma ([5]; 90 min after iv injection): approximately 60%
stability in formulation [6]: up to 60 min
SUVpeak brain (CCR2 [7]; NHP, after pretreatment with unlabeled AZD2423 3 mg/kg, n = 2): 0.4
SUVpeak brain (CCR2 [7]; NHP, baseline, n = 2): 0.4
SUVpeak parotid gland (CCR2 [7]; NHP, baseline, n = 2): 3.4
SUVpeak submandibular gland (CCR2 [7]; NHP, baseline, n = 2): 4.4
SUVpeak thyroid gland (CCR2 [7]; NHP, baseline, n = 2): 3.3
Average VT parotid gland (CCR2 [7]; baseline, n = 2): 111.1
Average VT thyroid gland (CCR2 [7]; baseline, n = 2): 53.1
Percentage decrease of VT parotid gland (CCR2 [7]; [8]): 62.6%
Percentage decrease of VT thyroid gland (CCR2 [7]; [8]): 63.4%
Percentage reduction of binding in the parotid gland (AUC ratio) (CCR2 [7]; [9]): 51.2%
Percentage reduction of binding in the submandibular gland (AUC ratio) (CCR2 [7]; [9]): 49%
Average VT parotid gland (CCR2 [7]; [10]): 41.6
Average VT thyroid gland (CCR2 [7]; [10]): 19.4
SMILES: CC(C)(C)N1CCNC(C(=O)N2CCN([11C](=O)Nc3ccc(Cl)c(F)c3)CC2)C1 (stereo not drawn) [[^11C]AZD2423]
Fu (brain) / brain slice distribution [1]: 0.045
IC50 (CCR1): > 10 µM
IC50 (CCR2 [2]): 2.6 nM
LogD [3]: 1.85
pKa [3]: 7.9
IC50 (CCR5): > 510 nM
Selectivity over other GPCR (Other GPCR): > 500 fold
